Measured values taken from patent US9018630B2, “Heterocyclic dinaphtho thieno thiophene (DNTT) compounds for use as organic semiconductor thin films in field effect transistors and related methods” (Nippon Kayaku Kabushiki Kaisha, priority 2011, dated 2015).
Converted amounts (≈) assume the structure as drawn.

Assays:
[1] = Absorption spectrums of saturated chloroform solutions, solubility ratio (Example 52, FIG. 4); format: physicochemical; details: for relative intensity of the longest absorption wavelength / Solubility ratio Chloroform: saturated chloroform solutions; for relative intensity of the longest absorption wavelength: 2,9-C10-DNTT = 1; for Solubility ratio Chloroform: compound (2)-64 = 1; for solubility ratio: from FIG. 4, solubility of the DNTT = 1
Text: (§1) Absorption spectrums of saturated solutions obtained by dissolving the DNTT having a C10 alkyl group at 2,9-positions (compound (2)-64), the DNTT having a C10 alkyl group at 3,10-positions (compound (1)-12), and the like in chloroform are shown in FIG. 4. In the case of the DNTT having a C10 long-chain alkyl group, from the results, the relative intensity of the longest absorption wavelength according to the substitution position was 3.9 in 3,10-C10-DNTT (compound (1)-12) wherein the relative intensity was 1 in 2,9-C10-DNTT (compound (2)-64). […] It was clearly found out that the solubility of 3,10-C10-DNTT (compound (1)-12) was also high in a heating state (Table 10).
(§2) From FIG. 4 wherein the solubility of the DNTT was 1, the solubility ratio of the DNTT having a short alkyl chain Ref-02 was 0.1 and the solubility ratio of the DNTT having a short alkyl chain Ref-03 was 0.5. […] It was also found out that considering the solution process, the compound having an alkyl substituent at 3,10-positions has more excellent properties. Namely, use of such high solubility enables production of a field effect transistor by creating a practical ink for creating a semiconductor device or applying the ink created.

[2] = Solubility at 60° C. in toluene (Example 52); format: physicochemical
Text: as §1

[3] = Solvent solubility, qualitative statements; format: physicochemical
Text: as §2

[4] = Heat resistance test of TC type field effect transistors (Example 51); details: heat resistance test of the transistor
Procedure: Using the compound (1)-22 synthesized in Example 39 and the compound (2)-64 synthesized in Synthesis Example 14, TC type field effect transistors were created by the same operation as that in Example 49 except that a substrate treated with HMDS-SAM was used, the substrate temperature during deposition was 100° C., L=40 μm, and W=1500 μm. The obtained field effect transistors were subjected to a heat resistance test. Comparing the initial properties (μ=1.66 cm^2/Vs, Vth=−14 V, Ion/off˜10^9), the mobility was approximately 1.6 cm^2/Vs even after annealing at 100° C. and 150° C., and the values of these properties were kept approximately equal to the initial values thereof. The properties were improved, for example, Vth was shifted to a low potential side.

| Compound | relative intensity of the longest absorption wavelength [1] | Solubility ratio Chloroform [1] | solvent solubility [3] | melting point | solubility ratio [1] | other results |
| --- | --- | --- | --- | --- | --- | --- |
| CCCCCCCCCCc1ccc2cc3sc4c5cc6cc(CCCCCCCCCC)ccc6cc5sc4c3cc2c1 [(1)-12, 3,10-didecyl dinaphtho[2,3-b:2′,3′-f]thieno[2,3-b]thiophene] | 3.9 | 3.8 | higher solvent solubility than that of the compound (2)-64 | 187 to 188 °C |  | solubility ([2]; organic solvent or mixture, 60° C., toluene): > 260 µg/mL |
| c1ccc(-c2ccc3cc4sc5c6cc7cc(-c8ccccc8)ccc7cc6sc5c4cc3c2)cc1 [(1)-22, 3,10-diphenyl dinaphtho[2,3-b:2′,3′-f]thieno[3,2-b]thiophene] |  |  |  | > 300 °C |  | thermal stability [4]: high thermal stability |
| CCCCCCCCCCc1ccc2cc3sc4c5cc6cc(CCCCCCCCCC)ccc6cc5sc4c3cc2c1 [(2)-64, 2,9-didecyldinaphtho[2,3-b:2′,3′-f]thieno[2,3-b]thiophene] | 1 | 1 |  |  |  | Solubility 60° C. toluene [2]: 45 µg/mL (≈ 72.5 µM) |
| c1ccc2cc3c(cc2c1)sc1c2cc4ccccc4cc2sc31 [Ref-01, Dinaphtho[2,3-b:2′,3′-f]thieno[3,2-b]thiophene] |  |  | does not dissolve in most of solvents |  | 1 |  |
| Cc1ccc2cc3sc4c5cc6cc(C)ccc6cc5sc4c3cc2c1 [Ref-02] |  |  | do not dissolve in most of solvents |  | 0.1 |  |
| Cc1ccc2cc3c(cc2c1)sc1c2cc4ccc(C)cc4cc2sc31 [Ref-03] |  |  | do not dissolve in most of solvents |  | 0.5 |  |
